This note sets out measurements from patent US20260083769A1, “2-Aminopropane-1,3-Diol-Capped Cationic Peptoids for Nucleic Acid Delivery” (NUTCRACKER THERAPEUTICS, INC., priority 2022, published 2026).

A short description of data set [1]: Percent encapsulated mRNA, RiboGreen assay. In kind it is physicochemical. How it is done:
Percent encapsulation. The percentage of mRNA encapsulated within the delivery vehicle complexes containing Fluc mRNA was determined using a modified RiboGreen® assay. In general, formulated mRNA samples were diluted to 500 ng/ml in Tris-EDTA buffer with or without Triton-X™. RiboGreen® (Invitrogen) was added at a 200-fold dilution, and the plate was incubated for 5 minutes. Fluorescence was measured at Ex. […]/Em. 520 nm and encapsulated mRNA was calculated by taking the ratio of fluorescence for non-lysed particles versus lysed particles.
The mRNA concentration and the percentage of encapsulated mRNA were determined using a fluorescence-based Quant-iT™ RiboGreen® RNA Reagent Kit using a literature procedure. To determine the mRNA concentration, delivery vehicles were incubated with 2% Triton™ X-100 for 10 min to release entrapped mRNA, followed by addition of RiboGreen® RNA reagent. The fluorescence intensity of mRNA-RiboGreen® reagent complex (excitation at 485 nm and emission at 530 nm) was detected using a microplate reader. The ratio of fluorescence without and with Triton™ X-100 were used to calculate the percentage of encapsulated mRNA.

Data set [2] in a line: RBC hemolysis as metric for fusogenicity. The format is cell-based. To be noted: sheep red blood cells (RBCs), 5% v/v. How it is done: RBC hemolysis was used as a metric for fusogenicity of LNPs at low pH. […] Particles were diluted to […] total lipid in well with 5% RBC solution and incubated at 37° C. for 45 min. Supernatant was collected and absorbance read on a microplate reader at 425 nm. Fusion was normalized to a fully lysed sample with 2% Triton™ and a buffer-only control. % hemolysis=100*[(ABS T-background)−(ABS sample-background)/(ABS T-background)].

Data set [3] can be described thus: Particle size and polydispersity (PDI) of delivery vehicles by dynamic light scattering. The format is physicochemical. The protocol:
The resulting delivery vehicle complexes were evaluated by dynamic light scattering (DLS) to determine the volume average particle size/diameter (nm) and the size polydispersity index (PDI) within the delivery vehicle complex.
Particle size. Particle sizes and size distributions were measured using a Wyatt DynaPro® Plate Reader III. In general, formulated samples were diluted to 2 ng/μL in 100 µL PBS. Data is reported as the hydrodynamic diameter (in nm) of the cumulant fit of the correlation function, and the polydispersity of that measurement.
In one particular instance, the size and polydispersity (PDI) of delivery vehicles was measured by dynamic light scattering in PBS using a DynaPro® plate reader III. The zeta potential of delivery vehicles was determined using Nano-ZS™ particle analyzer. Zeta sample was diluted to 30 uM total lipid in a weakly buffered solution of 10 mM HEPES, 10 mM MES, 10 mM ammonium acetate pH 7. Measurements were collected in duplicate for over 30 run with the voltage manually set to […]

The mark [4] stands for this setting: Table 6, comparative peptoid delivery vehicle.
Setting [5] is: Table 6, comparative peptoid delivery vehicle, pH 5, read-out: Hemolysis at pH 5.
Where [6] appears, read: Table 6, comparative peptoid delivery vehicle, pH 7, read-out: Hemolysis at pH 7.
Setting [7] is: Table 5, delivery vehicle comprising the peptoid, Formulation D22, fLuc mRNA.

Where two headings read alike, the source gives them in different places. Where a SMILES comes first, the peptide text is derived from it. [ ]: non-standard residue; d: D form. Gly(Nα-oleyl) = CCCCCCCC/C=C\CCCCCCCCNCC(=O)O; Gly(N-dodecyl) = CCCCCCCCCCCCNCC(=O)O; N(CH(CH2OH)2)Gly = O=C(O)CNC(CO)CO; N(octyl)Gly = CCCCCCCCNCC(=O)O; NDecylGly = CCCCCCCCCCNCC(=O)O; NHexGly = CCCCCCNCC(=O)O

With `CCCCCCCCCCCCN(CC(N)=O)C(=O)CN(CCCCCCCCCCCC)C(=O)CN(CCCCCCCCCCCC)C(=O)CN(CCCCCCCCCCCC)C(=O)CNCCCN1CCCCC1` [Compound C11, reference compound], in data set [1] (setting [4]), the “% Encapsulation” value worked out at 92.4%. Further, the values for the hemolysis at 45 min, 150 mM total lipid in data set [2] (setting [5]) and in data set [2] (setting [6]) were 9.6% and 10.2%, respectively. The compound further showed a PDI in data set [3] (setting [4]) of 0.179. Also, the “Particle Size (nm)” value in data set [3] (setting [4]) was found to be 70.2 nm.

Consider `CCCCCCCCCCCCN(CC(N)=O)C(=O)CN(CCCCCCCCCCCC)C(=O)CN(CCCCCCCCCCCC)C(=O)CN(CCCCCCCCCCCC)C(=O)CN(CC)CCO` [Compound C12, reference compound], for which the “% Encapsulation” value in data set [1] (setting [4]) was 95.9%. Moreover, the figures for the hemolysis at 45 min, 150 mM total lipid in data set [2] (setting [5]) and in data set [2] (setting [6]) were -2.4% and 3.9%, respectively. The PDI in data set [3] (setting [4]) was determined as 0.175. Further, the “Particle Size (nm)” value in data set [3] (setting [4]) stood at 62.4 nm.

Take `CCCCCCCCCCCCN(CC(N)=O)C(=O)CN(CCCCCCCCCCCC)C(=O)CN(CCCCCCCCCCCC)C(=O)CN(CCCCCCCCCCCC)C(=O)CNCCCn1ccnc1` [Compound C8, reference compound]: the “% Encapsulation” value in data set [1] (setting [4]) was 93.5%. Also, the hemolysis at 45 min, 150 mM total lipid in data set [2] (setting [5]) came out at 2.3%; in data set [2] (setting [6]), 8.1%. In data set [3] (setting [4]), this compound registered a PDI of 0.192. The “Particle Size (nm)” value in data set [3] (setting [4]) came out at 60.2 nm.

As to `CCCCCCCCCCN(CC(N)=O)C(=O)CN(CCCCCCCC)C(=O)CN(CCCCCCCC)C(=O)CN(CCCCCCCCCC)C(=O)CN(CCCCCCCC)C(=O)CN(CCCCCCCC)C(=O)CNC(CO)CO` [Compound 26] (H-[N(CH(CH2OH)2)Gly][N(octyl)Gly][N(octyl)Gly][NDecylGly][N(octyl)Gly][N(octyl)Gly][NDecylGly]-NH2), the “% Encapsulation” value in data set [1] (setting [7]) was found to be 66.1%. In data set [3] (setting [7]), the PDI entry is recorded as “Multimodal” and the “Particle Size (nm)” value was found to be 421.9 nm.

As to `CCCCCCCC/C=C\CCCCCCCCN(CC(=O)N(CCCCCCCCCCCC)CC(N)=O)C(=O)CN(CCCCCCCCCCCC)C(=O)CNC(CO)CO` [Compound 4] (H-[N(CH(CH2OH)2)Gly][Gly(N-dodecyl)][Gly(Nα-oleyl)][Gly(N-dodecyl)]-NH2), the “% Encapsulation” value in data set [1] (setting [7]) was determined as 12.3%. For the same compound, in data set [3] (setting [7]), the PDI entry is listed as “Multimodal” and the “Particle Size (nm)” value stood at 631.3 nm.

Consider `CCCCCCCCCCCCN(CC(N)=O)C(=O)CN(CCCCCCCCCCCC)C(=O)CN(CCCCCCCCCCCC)C(=O)CN(CCCCCCCCCCCC)C(=O)CNCCCO` [Compound C2, reference compound], for which the “% Encapsulation” value in data set [1] (setting [4]) was found to be 92.2%. Moreover, the hemolysis at 45 min, 150 mM total lipid in data set [2] (setting [5]) turned out to be 10.6%. The hemolysis at 45 min, 150 mM total lipid in data set [2] (setting [6]) worked out at 37.2%. Further, in data set [3] (setting [4]), the PDI was 0.179 and the “Particle Size (nm)” value was found to be 67.0 nm.

For `CCCCCCCCCCN(CC(=O)N(CCCCCC)CC(N)=O)C(=O)CN(CCCCCCCC)C(=O)CN(CCCCCC)C(=O)CN(CCCCCCCCCC)C(=O)CN(CCCCCCCC)C(=O)CNC(CO)CO` [Compound 32] (H-[N(CH(CH2OH)2)Gly][N(octyl)Gly][NDecylGly][NHexGly][N(octyl)Gly][NDecylGly][NHexGly]-NH2), the “% Encapsulation” value in data set [1] (setting [7]) was determined as 23.3%. Besides, in data set [3] (setting [7]), the PDI entry is on record as “Multimodal” and the “Particle Size (nm)” value was determined as 692.4 nm.

`CCCCCCCCCCCCN(CC(N)=O)C(=O)CN(CCCCCCCCCCCC)C(=O)CN(CCCCCCCCCCCC)C(=O)CN(CCCCCCCCCCCC)C(=O)CNCCCOC` [Compound C7, reference compound]: the “% Encapsulation” value in data set [1] (setting [4]) is listed as 93.1%. For the same compound, in data set [2] (setting [5]), the hemolysis at 45 min, 150 mM total lipid is 31.6%. Further, in data set [2] (setting [6]), the hemolysis at 45 min, 150 mM total lipid amounted to 65.5%. In data set [3] (setting [4]), the PDI came to 0.219 and the “Particle Size (nm)” value was 71.3 nm.

In the case of `CCCCCCCCCCCCN(CC(N)=O)C(=O)CN(CCCCCCCCCCCC)C(=O)CN(CCCCCCCCCCCC)C(=O)CN(CCCCCCCCCCCC)C(=O)CNCCCN1CCOCC1` [Compound C10, reference compound], the “% Encapsulation” value in data set [1] (setting [4]) came out at 86.6%. Also, the hemolysis at 45 min, 150 mM total lipid in data set [2] (setting [5]) was 0.6%; in data set [2] (setting [6]), 1%. Further, in data set [3] (setting [4]), the PDI amounted to 0.520. Also, in data set [3] (setting [4]), the “Particle Size (nm)” value was 84.6 nm.

Take `CCCCCCCCCCCCN(CC(=O)N(CC(=O)N(CCCCCCCCCCCC)CC(=O)N(CC(N)=O)CC(CC)CCCC)CC(CC)CCCC)C(=O)CNC(CO)CO` (stereo not shown) [Compound 23]: the “% Encapsulation” value in data set [1] (setting [7]) worked out at 2.3%. Moreover, in data set [3] (setting [7]), the PDI entry is reported as “Multimodal” and the “Particle Size (nm)” value was 1269.5 nm.

Consider `CCCCCCCCN(CC(=O)N(CCCCCCCC)CC(=O)N(CCCCCC)CC(=O)N(CCCCCCCC)CC(=O)N(CCCCCCCC)CC(=O)N(CCCCCC)CC(N)=O)C(=O)CNC(CO)CO` [Compound 25] (H-[N(CH(CH2OH)2)Gly][N(octyl)Gly][N(octyl)Gly][NHexGly][N(octyl)Gly][N(octyl)Gly][NHexGly]-NH2), for which the “% Encapsulation” value in data set [1] (setting [7]) turned out to be 24.3%. Moreover, in data set [2] (Table 5, delivery vehicle, 37° C. 45 min, pH 5, read-out: Hemolysis at pH 5), the hemolysis at 45 min, 150 mM total lipid came out at 94.6%. For the same compound, the hemolysis at 45 min, 150 mM total lipid in data set [2] (Table 5, delivery vehicle, 37° C. 45 min, pH 7, read-out: Hemolysis at pH 7) is 94.7%. In data set [3] (setting [7]), the PDI entry is “Multimodal” and the “Particle Size (nm)” value turned out to be 2220.3 nm.

For the compound `CCCCCCCCCCCCN(CC(N)=O)C(=O)CN(CCCCCCCCCCCC)C(=O)CN(CCCCCCCCCCCC)C(=O)CN(CCCCCCCCCCCC)C(=O)CNCCOC` [Compound C6, reference compound], in data set [1] (setting [4]), the “% Encapsulation” value is listed as 92.6%. The hemolysis at 45 min, 150 mM total lipid in data set [2] (setting [5]) was found to be 4.9%; in data set [2] (setting [6]) it was 22.7%. This compound also gave a PDI in data set [3] (setting [4]) of 0.223. The “Particle Size (nm)” value in data set [3] (setting [4]) worked out at 67.1 nm.

As for `CCCCCCCCN(CC(N)=O)C(=O)CN(CCCCCCCC)C(=O)CN(CCCCCCCC)C(=O)CN(CC(CC)CCCC)C(=O)CN(CCCCCCCC)C(=O)CN(CCCCCCCC)C(=O)CN(CCCCCCCC)C(=O)CN(CC(CC)CCCC)C(=O)CNC(CO)CO` (stereo not shown) [Compound 11], in data set [1] (setting [7]), the “% Encapsulation” value amounted to 66.1%. Moreover, in data set [3] (setting [7]), the PDI is 0.111 and the “Particle Size (nm)” value worked out at 106.6 nm.

Turning to `CCCCCCCCCCCCN(CC(N)=O)C(=O)CN(CCCCCCCCCCCC)C(=O)CN(CCCCCCCCCCCC)C(=O)CN(CCCCCCCCCCCC)C(=O)CN(CCO)CCO` [Compound C4, reference compound], the “% Encapsulation” value in data set [1] (setting [4]) worked out at 90.5%. Further, the hemolysis at 45 min, 150 mM total lipid in data set [2] (setting [5]) came to 4.9%. In data set [2] (setting [6]), the hemolysis at 45 min, 150 mM total lipid is 12%. Moreover, in data set [3] (setting [4]), the PDI was 0.186 and the “Particle Size (nm)” value was found to be 67.7 nm.

In the case of `CCCCCCCCCCCCN(CC(N)=O)C(=O)CN(CCCCCCCCCCCC)C(=O)CN(CCCCCCCCCCCC)C(=O)CN(CCCCCCCCCCCC)C(=O)CNCCN(C)C` [Compound C13, reference compound], the “% Encapsulation” value in data set [1] (setting [4]) is 95.4%. Moreover, the hemolysis at 45 min, 150 mM total lipid in data set [2] (setting [5]) was -12.3%. Besides, the hemolysis at 45 min, 150 mM total lipid in data set [2] (setting [6]) came out at 8.2%. In data set [3] (setting [4]), the PDI came to 0.180 and the “Particle Size (nm)” value was 57.6 nm.

On to `CCCCCCCCCCCCN(CC(N)=O)C(=O)CN(CCCCCCCCCCCC)C(=O)CN(CCCCCCCCCCCC)C(=O)CN(CCCCCCCCCCCC)C(=O)CNCCCn1ccnc1C` [Compound C9, reference compound], for which the “% Encapsulation” value in data set [1] (setting [4]) came to 98.8%. The figures for the hemolysis at 45 min, 150 mM total lipid in data set [2] (setting [5]) and in data set [2] (setting [6]) were 0.7% and 2.4%, respectively. In addition, the PDI in data set [3] (setting [4]) came out at 0.201. Further, the “Particle Size (nm)” value in data set [3] (setting [4]) was found to be 63.0 nm.
